# Data taken from ChEMBL document CHEMBL1201862, “PubChem BioAssay data set” (2004).
# Activity calls are given as the source filed them.
# Tests used:
# [1] = cytotoxicity in HEK-293T cells, dose response, cytotoxicity control for BCR NF-kB inhibitor project, luminescence, B-cell screen hits (AID 489021); type: functional, cell-based;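 also: HEK-293T cells carrying an NF-kB luciferase reporter; cells exposed to compound for about 14 hours before viability readout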
# [2] = Luminescence Cell-Based Dose Confirmation HTS to Identify Activators of 5'UTR Stem-Loop Driven Alpha-Synuclein mRNA Translation in H4 Neuroglioblastoma Cells. [Related pubchem assays: 1829 (Project Summary), 1814 (Primary HTS)]; type: functional
# [3] = Luminescence Cell-Based Dose Response HTS to Identify Activators of Luciferase Translation or Activity in H4 […] Cells. [Related pubchem assays: 1829 (Project Summary), 1814 (Primary HTS)]; type: functional
# H4 = assay: Luminescence Cell-Based Dose Response HTS to Identify Activators of 5'UTR Stem-Loop Driven Prion Protein mRNA Translation in H4 Neuroglioblastoma Cells. [Related pubchem assays: 1829 (Project Summary), 1814 (Primary HTS)]; type: functional; settings: Homo sapiens
# HeLa = assay: HeLa cell cytotoxicity, dose response, cytotoxicity control for MITF activator project, CellTiter-Glo luminescence, cherry-pick samples (AID 540259); type: functional, cell-based; settings: Homo sapiens
# [4] = P. falciparum late gametocyte killing, dose response, luminescence (AID 1117278); type: functional, cell-based;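 also: gametocytes exposed to compound for 24 hours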
# [5] = Jurkat T cell cytotoxicity, dose response, cytotoxicity control for P. falciparum gametocyte viability project, luminescence (AID 1117277); type: functional, cell-based;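 also: potency reflects loss of cellular ATP meaning fewer viable cells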
# [6] = biological target: Heat shock protein HSP 90-alpha (Homo sapiens, UniProt P07900); assay: Luminescence-based dose response biochemical high throughput screening assay for inhibitors of the Heat Shock Protein 90 (HSP90). [Related pubchem assays: 1831 (Summary AID.), 1846 (Confirmation screen.), 1789 (Primary screen.)]
# [7] = growth suppression of PTEN-null colon cells, dose response, cell-based, HCT116 PTEN knockout (AID 1047); type: functional;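 also: HCT116 colon tumor cells with PTEN knocked out; cells exposed to compound for 60 hours before readout; potency for loss of cell viability measured by luminescence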
# [8] = growth suppression of beta-catenin-knockout colon cells, dose response, cell-based, HCT116, human colon tumor (AID 1045); type: functional;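 also: HCT116 colon tumor cells with beta catenin knocked out; cells exposed to compound for 60 hours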
# [9] = NIH-3T3 fibroblast cytotoxicity, dose response, cytotoxicity control, cell-based, fluorescence, Alamar Blue, secondary assay (AID 2327); type: functional;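 also: NIH-3T3 mouse fibroblasts cultured with fluconazole at 8 µg/mL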
# [10] = C. albicans growth with fluconazole, confirmation, fluorescence, retest (AID 2467); type: functional, cell-based
# [11] = biological target: T1, Serine/threonine-protein phosphatase (Candida dubliniensis (strain CD36 / CBS 7987 / NCPF 3949 / NRRLY-17841) (Yeast), UniProt B9W6M3); assay: calcineurin pathway inhibitors in yeast reporter, dose response, S. cerevisiae, CDRE-lacZ, luminescence, secondary (AID 2388); type: functional, cell-based;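 also: yeast reporter cells carrying a calcineurin-responsive lacZ construct stimulated with calcium chloride; luminescent beta-galactosidase reporter signal in whole cells rather than isolated phosphatase activity; potency for inhibition where a drop in reporter signal means calcineurin blockade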
# T1 sequence (B9W6M3 whole entry): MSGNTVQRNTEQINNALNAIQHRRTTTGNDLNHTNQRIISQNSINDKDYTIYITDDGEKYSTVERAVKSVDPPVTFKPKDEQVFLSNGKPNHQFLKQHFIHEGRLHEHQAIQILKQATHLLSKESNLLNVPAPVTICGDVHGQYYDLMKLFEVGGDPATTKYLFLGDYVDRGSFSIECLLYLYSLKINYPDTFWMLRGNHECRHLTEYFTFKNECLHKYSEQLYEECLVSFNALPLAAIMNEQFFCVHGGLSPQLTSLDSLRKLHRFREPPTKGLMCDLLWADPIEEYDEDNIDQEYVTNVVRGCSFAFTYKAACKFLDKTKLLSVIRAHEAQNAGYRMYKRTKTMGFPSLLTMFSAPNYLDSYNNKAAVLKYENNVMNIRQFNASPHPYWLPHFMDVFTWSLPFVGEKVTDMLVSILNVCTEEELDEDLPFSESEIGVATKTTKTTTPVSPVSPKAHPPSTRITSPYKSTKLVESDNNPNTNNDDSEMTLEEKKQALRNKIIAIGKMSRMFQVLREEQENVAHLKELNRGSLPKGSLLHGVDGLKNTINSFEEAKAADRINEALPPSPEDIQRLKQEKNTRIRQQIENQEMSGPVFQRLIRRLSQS
# [12] = biological target: ATP-dependent molecular chaperone HSP82 (Candida albicans (strain WO-1) (Yeast), UniProt C4YTQ8); assay: loss of DOC-induced GRE-beta-galactosidase reporter signal, dose response, Hsp90 inhibitor project, S. cerevisiae, luminescence (AID 2400); type: functional, cell-based;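 also: beta-galactosidase luminescence from glucocorticoid response element reporter as proxy for Hsp90 function; inhibitor potency where signal loss means Hsp90 inhibition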
# Chain of ATP-dependent molecular chaperone HSP82 (C4YTQ8 whole entry): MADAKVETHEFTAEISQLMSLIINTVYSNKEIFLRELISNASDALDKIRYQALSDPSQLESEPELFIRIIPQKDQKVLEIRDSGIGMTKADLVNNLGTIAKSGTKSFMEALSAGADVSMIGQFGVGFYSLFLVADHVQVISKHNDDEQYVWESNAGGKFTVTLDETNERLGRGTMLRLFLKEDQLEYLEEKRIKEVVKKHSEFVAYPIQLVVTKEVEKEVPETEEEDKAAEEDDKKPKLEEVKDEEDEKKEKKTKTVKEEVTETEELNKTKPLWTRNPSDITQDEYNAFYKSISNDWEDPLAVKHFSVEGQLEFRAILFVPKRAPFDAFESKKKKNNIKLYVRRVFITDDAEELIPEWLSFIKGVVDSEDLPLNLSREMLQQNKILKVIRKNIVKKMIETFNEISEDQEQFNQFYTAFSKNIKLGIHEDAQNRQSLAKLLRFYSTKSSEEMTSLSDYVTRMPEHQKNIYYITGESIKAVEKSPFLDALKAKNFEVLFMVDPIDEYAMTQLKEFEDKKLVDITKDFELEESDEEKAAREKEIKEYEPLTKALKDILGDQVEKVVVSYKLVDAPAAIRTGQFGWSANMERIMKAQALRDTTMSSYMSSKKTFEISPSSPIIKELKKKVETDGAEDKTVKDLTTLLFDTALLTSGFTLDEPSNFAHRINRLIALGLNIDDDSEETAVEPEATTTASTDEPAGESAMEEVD
# [13] = inhibitors of firefly luciferase expression or activity, dose response, H4 neuroglioma cells, luminescence (AID 1990); type: functional, cell-based
# [14] = Luminescence Cell-Based Dose Response HTS to Identify Inhibitors of 5'UTR Stem-Loop Driven Prion Protein mRNA Translation in H4 Neuroglioblastoma Cells. [Related pubchem assays: 1827 (Project Summary), 1813 (Primary HTS)]; type: functional
# [15] = inhibitors of SNCA 5'UTR-driven reporter translation, confirmation, H4 neuroglioma cells, luminescence (AID 1988); type: functional, cell-based
# [16] = biological target: T2, Corticotropin-releasing factor receptor 2/Corticotropin-releasing factor-binding protein (Homo sapiens, UniProt P24387+Q13324); assay: activators of CRF receptor 2 with binding protein – uHTS hits, confirmation (AID 602473); type: functional; settings: read-out: EC50_Mean
# T2 sequence (Q13324 whole entry): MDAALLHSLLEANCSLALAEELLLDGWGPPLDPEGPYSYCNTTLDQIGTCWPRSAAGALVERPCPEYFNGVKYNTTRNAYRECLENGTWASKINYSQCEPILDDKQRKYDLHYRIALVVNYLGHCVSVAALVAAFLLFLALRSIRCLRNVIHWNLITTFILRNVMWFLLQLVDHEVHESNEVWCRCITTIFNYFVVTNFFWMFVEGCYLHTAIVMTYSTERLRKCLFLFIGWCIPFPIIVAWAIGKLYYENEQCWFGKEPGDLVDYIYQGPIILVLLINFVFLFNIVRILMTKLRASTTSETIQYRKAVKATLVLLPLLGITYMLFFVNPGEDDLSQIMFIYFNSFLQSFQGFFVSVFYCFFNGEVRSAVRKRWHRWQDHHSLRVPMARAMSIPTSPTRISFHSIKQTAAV
# T2 sequence (P24387 whole entry): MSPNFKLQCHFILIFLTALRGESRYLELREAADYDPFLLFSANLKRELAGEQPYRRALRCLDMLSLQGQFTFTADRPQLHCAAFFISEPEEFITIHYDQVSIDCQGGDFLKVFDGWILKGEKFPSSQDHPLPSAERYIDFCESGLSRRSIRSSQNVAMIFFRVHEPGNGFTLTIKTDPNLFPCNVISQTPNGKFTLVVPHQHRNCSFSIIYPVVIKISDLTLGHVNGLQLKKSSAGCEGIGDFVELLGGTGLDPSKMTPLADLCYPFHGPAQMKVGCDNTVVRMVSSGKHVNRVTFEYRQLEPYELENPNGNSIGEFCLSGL
# [17] = HEp-2 cell cytotoxicity, dose response, cytotoxicity control for RSV inhibitor project, HTS (AID 2410); type: functional; settings: human respiratory syncytial virus
# INS1 = assay: beta cell apoptosis inhibitors, cytokine rescue, dose response, luminescence, retest (AID 449756); type: functional, cell-based; settings: Rattus norvegicus;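 also: cell death triggered by IL-1 beta plus TNF-alpha plus IFN-gamma mixture; protective hits raise ATP signal compared with cytokine alone wells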
# Caspase-6 = biological target: T3, Caspase-6 (Homo sapiens, UniProt P55212); assay: human caspase-6 inhibitors, dose response, biochemical, VEID-R110 fluorescence, cherry-pick (AID 720632)
# T3 sequence (P55212 whole entry): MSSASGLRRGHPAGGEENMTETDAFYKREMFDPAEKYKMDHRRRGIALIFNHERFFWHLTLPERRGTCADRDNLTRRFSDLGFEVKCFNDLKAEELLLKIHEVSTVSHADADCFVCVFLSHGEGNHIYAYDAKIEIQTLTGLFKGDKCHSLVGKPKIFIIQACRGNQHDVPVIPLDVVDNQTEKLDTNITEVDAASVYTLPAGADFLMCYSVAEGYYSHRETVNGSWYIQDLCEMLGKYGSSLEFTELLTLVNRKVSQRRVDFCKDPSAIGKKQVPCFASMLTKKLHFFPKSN
smiles,measurement,setting,value
CCCS(=O)(=O)Nc1cccc(-c2ccc3nnc(C)n3n2)c1,IC50,[1],> 80 µM (inactive)
Cc1ccccc1C(=O)O/N=C(\N)Cc1cccs1,EC50,[2],> 120 µM (not active)
same,EC50,[3],67.6 µM (active)
same,EC50,H4,6.9 µM (active)
same,AC50,HeLa,32 µM (active)
Cc1cc(C)n(-c2ccc(C(=O)NCc3cccs3)cc2)n1,IC50,[4],> 109 µM (inactive)
same,IC50,[5],> 83.3 µM (inactive)
CCC(C)c1ccc(OCc2ccc(C(=O)OC)o2)cc1 (stereo not given),IC50,[6],2.29 µM (active)
CCc1ccc(-c2nc(CN3CCC(C(=O)NCCN(CC)c4ccccc4)CC3)c(C)o2)cc1,EC50,[7],7.82 µM (active)
same,EC50,[8],6.8 µM (active)
C=CCNC(S)=Nc1sc2c(c1C(=O)OCC)CC(C)(CC)OC2 (stereo not given),EC50,[9],> 150 µM (inconclusive)
same,EC50,[10],0.889 µM (active)
same,EC50,[11],> 180 µM (inactive)
same,EC50,[12],19.2 µM (active)
Cc1ccc(-c2csc3ncn(CC(=O)N4CCOCC4)c(=O)c23)cc1,IC50,[4],> 109 µM (inactive)
same,IC50,[5],> 83.3 µM (inactive)
CC1=NN(c2ccccc2)C(=O)/C1=C\N(O)c1ccccc1,IC50,[6],2.78 µM (active)
Cc1cccc(C)c1NC1=NC(=S)N(c2ccc(C(=O)O)cc2)C12CCCCC2,IC50,[4],> 109 µM (inactive)
same,IC50,[5],> 83.3 µM (inactive)
C[C@H]1CC[C@@H]2[C@@H](C)[C@H]3[C@H](C[C@H]4[C@@H]5CC=C6C[C@@H](O[C@@H]7O[C@H](CO)[C@H](O)[C@H](O[C@@H]8O[C@H](CO)[C@@H](O)[C@H](O)[C@H]8O)[C@H]7O[C@@H]7O[C@@H](C)[C@H](O)[C@@H](O)[C@H]7O)CC[C@]6(C)[C@H]5CC[C@]34C)N2C1,EC50,[13],13.5 µM (active)
same,EC50,[14],> 120 µM (not active)
same,EC50,[15],> 120 µM (not active)
same,EC50,[7],25.2 µM (active)
same,EC50,[8],22.1 µM (active)
same,EC50,[16],9.48 µM (active)
Cc1csc(NC(=O)CCc2c(C)nc3cc(-c4ccc(Cl)cc4)nn3c2C)n1,IC50,[1],> 80 µM (inactive)
CCCn1nnc2sc3c(c2c1=O)CCC(C)C3 (stereo not given),CC50,[17],> 50 µM (active)
same,EC50,[2],41.1 µM (active)
same,EC50,[3],0.528 µM (active)
same,EC50,H4,16.2 µM (active)
same,AC50,HeLa,55.9 µM (active)
c1ccc(-c2cnnc(N3CCCCC3)n2)cc1,AC50,HeLa,191 µM (active)
CC(=O)CSc1ccc(-c2nc3ccccc3[nH]2)cn1,IC50,[6],8.09 µM (active)
same,AC50,INS1,5.24 µM (active)
CNS(=O)(=O)c1cccc(C(=O)OCC(=O)N2c3ccccc3NC(=O)C2(C)C)c1,AC50,Caspase-6,3 µM (active)
